Measurements taken from patent publication US20170314077A1, “SLFN11 AS BIOMARKER FOR AML” (BERGENBIO AS, priority 2014, published 2017).
Entries after “also recorded” stand apart in the source; their conditions may differ.

Legend:
SLFN11 = experiment: MOLM13 systemic xenograft model: biomarker flow cytometry in CD33-positive cells, SLFN11; type: in vivo, mice; settings: bone marrows, 50 mg/kg for 4 days
Description: (§1) Material from an in vivo MOLM13 systemic model was also evaluated by flow cytometry. Expression of the previously evaluated biomarkers was examined in cells isolated from bone marrows and spleens of animals with systemic AML disease (MOLM13, inoculated for 7 days prior to treatment) treated with BGB324 at 50 mg/kg for 4 days.
(§2) Cells isolated from spleens and bone marrows were assessed for phosphorylation of Erk, PLCγ1 and Akt, and expression of PHGDH and SLFN11. The samples were also co-stained with CD33, and biomarker expression was only evaluated in CD33-positive cells.

pErk = experiment: MOLM13 systemic xenograft model: biomarker flow cytometry in CD33-positive cells, pErk; type: in vivo, mice; settings: 50 mg/kg for 4 days
Description: as §1, §2

SLFN11 transcript [1] = experiment: Microarray analysis of spleen RNA, systemic MOLM13 AML model (study 3); type: in vivo, NSG mice; settings: study 3, systemic MOLM13, 25 or 50 mg/kg QD, 14 days
Description: (§3) To identify new potential biomarkers of BGB324 efficacy in AML, microarray analyses of tumor material from several AML studies were performed. In the first two studies, NOD/SCID mice were implanted with subcutaneous Mv4-11 xenografts. In study 1 the mice were treated with control (vehicle) or a single dose of BGB324 (50 or 100 mg/kg), and sacrificed after 24 hours. In study 2 the mice were treated BID for 14 days with control (vehicle), low (25 mg/kg) or high (50 mg/kg) dose of BGB324 for 14 days. In a third study, MOLM13 cells were injected intravenously into the tail vein of NSG mice. After three days of inoculation, the animals were treated with control (vehicle), high (50 mg/kg) or low (25 mg/kg) dose of BGB324 QD until the vehicle-treated animals were moribund (14 days after initiation of treatment). Development of leukemia was confirmed by flow cytometric analyses of human CD33/CD45-positive cells in the blood, spleens and bone marrow, and RNA isolated from spleens were sent for microarray analysis.

[2] = system: Slfn11 expression in OCI-AML3 cells; experiment: Flow cytometry of Slfn11 expression in OCI-AML3 cells after treatment; type: cell-based, human; settings: OCI-AML3, treated at IC50-values for 24, 48 and 72 hours
Description: (§4) Live cells were centrifuged at 300 g for 5 minutes, washed once with PBS and centrifuged again. Cells were then fixed in 4% PFA in PBS for 10 minutes at 37° C., and resuspended in PBS. Unless processed immediately, samples were at this point stored in PBS at 4° C. (up to three weeks) or at −80° C. (for long-term storage). If intracellular epitopes were stained, cells were permebealized in 90% MeOH for 30 minutes on ice. Unless processed immediately, samples were also be stored in 90% MeOH at −20° C. for up to two months.
(§5) Cells (150-200 000 per sample) were washed 1× in PBS and incubated in blocking buffer; (PBS+0.5% BSA) for 15 minutes at room temperature. Thereafter, cells were incubated with primary mouse-anti-human SLFN11 Ab at the indicated dilutions in incubation buffer (IB, PBS+0.5% BSA) for 1 hour at room temperature. Cells were then washed 3× with IB and incubated with secondary AB (conjugated to a fluorescent flurophore) at 1:1000 dilution in IB for 30 minutes at room temperature. Finally, cells were washed 3× in IB and resuspended in PBS. For costaining experiments, cells were subsequently incubated with mouse-anti-human Axl Ab (1H12-A647 conjugated Ab) diluted 1:3000 in IB. Cells were analyzed immediately, or stored for up to 24 hours at 4° C. before analysis. […]

pPLCγ1 = experiment: MOLM13 systemic xenograft model: biomarker flow cytometry in CD33-positive cells, pPLCγ1; type: in vivo, mice; settings: 50 mg/kg for 4 days
Description: as §1, §2

[3] = system: Slfn11 expression in MOLM-13 cells; experiment: Flow cytometry of Slfn11 expression in MOLM-13 cells after treatment; type: cell-based, human
Description: as §4
Cells (150-200 000 per sample) were washed 1× in PBS and incubated in blocking buffer; (PBS+0.5% BSA) for 15 minutes at room temperature. Thereafter, cells were incubated with primary mouse-anti-human SLFN11 Ab at the indicated dilutions in incubation buffer (IB, PBS+0.5% BSA) for 1 hour at room temperature. Cells were then washed 3× with IB and incubated with secondary AB (conjugated to a fluorescent flurophore) at 1:1000 dilution in IB for 30 minutes at room temperature. Finally, cells were washed 3× in IB and resuspended in PBS. For costaining experiments, cells were subsequently incubated with mouse-anti-human Axl Ab (1H12-A647 conjugated Ab) diluted 1:3000 in IB. Cells were analyzed immediately, or stored for up to 24 hours at 4° C. before analysis.
Analysis of cells was done on a BD LSR Fortessa or a BD C6 Accuri flow cytometer, and further processing was done using FlowJo v.7.6.

SLFN11 transcript [4] = experiment: Microarray analysis of subcutaneous Mv4-11 xenograft tumors (study 1 and study 2); type: in vivo, NOD/SCID mice; settings: for downregulation of SLFN11 transcript (Rank Product Analysis): study 2, Mv4-11 xenografts, vs control
Description: as §3
One of the most interesting hits from a Rank Product Analysis of study 2 was a transcript called SLFN11.

[5] = system: Slfn11 expression in MOLM-13 cells; experiment: Western blot of Slfn11 in MOLM-13 cells, increasing doses; type: cell-based, human; settings: MOLM-13, 48 hours, increasing doses 0.1 uM to 1.2 uM
Description: (§6) For western blot analysis, cells were lysed on ice using NP-40 lysis buffer with protease- and phosphatase inhibitors. Total protein concentration in lysates was measured using a BCA protein assay kit following the manufacturers instructions. 10% NuPAGE® Bis-Tris precast gels were loaded with 30-50 μg of protein in each well diluted in sample buffer and antioxidant. A 1:1 mix of MagicMark™ XP Western Protein Standard (Invitrogen) and SeeBlue® Plus 2 Pre-Stained Standard was used as protein standard. Gels were run at 50V for 20 min, then at 100V for 1 h30 min. Blotting was done on ice for 1 h 30 min at 100V onto PVDF (pre-activated with MeOH) or nitrocellulose membranes. Membranes were washed in TBS-0.1% Tween-20 (TBS-T), and blocked in TBS-T 5% BSA for at least 1 h at RT. Primary antibody was added at 1:1000 in TBS-T 5% BSA (rabbit-anti-actin Ab was added at 1:2000, rabbit anti-GAPDH Ab was added at 1:3000) in TBS-T 5% BSA, and membranes were incubated over night at 4° C. Membranes were then washed 3× in TBS-T, and incubated in HRP-conjugated secondary antibody at 1:5000 dilution in TBS-T 5% milk for 45 min at RT. Membranes were developed for 1 min using ECL-reagents and imaged with chemiluminescence using a Molecular Imager ChemiDoc™ XRS (BioRad).

Slfn11 protein = experiment: Western blot of MV4-11 subcutaneous tumor xenograft lysates; type: in vivo, mice; settings: MV4-11 xenografts
Description: as §6
In these studies, mice had been treated with BGB324 25 mg/kg BID and 50 mg/kg BID 2-5 cycle for 14 days, or with a single dose 100 mg/kg (tumors harvested 6 h after treatment).
Since Slfn11 was reduced in only one of two parallel tumor samples after a single treatment, it was decided to examine more lysates from Study 1 by western blot. In this study, mice with subcutaneous MV4-11 tumor xenografts were treated with a single low (50 mg/kg) or high (100 mg/kg) dose of BGB324, and tumors were harvested at different time points, from 4 hours up to 72 hours after treatment. […] Thus, it appears that Slfn11 is reduced in MV4-11 xenografts within 24-72 hours (depending on the drug concentration) after treatment with a single dose of BGB324. The effect of BGB324 on Slfn11 expression in these tumors appears to be long-lasting, as the protein level stays low 72 hours after treatment. However, there appear to be individual differences, and more than two parallel samples of each time point need to be examined in order to better understand the dynamics of Slfn11 reduction in MV4-11 xenografts after BGB324-treatment.

pAkt = experiment: MOLM13 systemic xenograft model: biomarker flow cytometry in CD33-positive cells, pAkt; type: in vivo, mice; settings: 50 mg/kg for 4 days
Description: as §1, §2

[6] = system: Slfn11 expression in OCI-M1 cells; experiment: Flow cytometry of Slfn11 expression in OCI-M1 cells after treatment; type: cell-based, human; settings: OCI-M1, treated at IC50-values for 24, 48 and 72 hours
Description: as §4, §5

[7] = system: SLFN11 expression in Kasumi cells; experiment: Flow cytometry of total SLFN11 in Kasumi cells after long-term treatment; type: cell-based, human; settings: 2.5 μM
Description: as §4, §5

[8] = system: SLFN11 expression in OCI-AML5 cells; experiment: Flow cytometry of total SLFN11 in OCI-AML5 cells after long-term treatment; type: cell-based, human; settings: OCI-AML5, 2.5 μM
Description: as §4, §5

[9] = system: MOLM13 leukemic cells (CD33/CD45-positive); experiment: MOLM13 systemic xenograft model: CD33/CD45-positive leukemic cells by flow cytometry; type: in vivo, mice; settings: 50 mg/kg for 4 days
Description: as §1
Cells harvested from spleens, blood and bone marrows of the animals were stained with anti CD33 and CD45 antibodies, to determine if systemic disease was established. CD33/CD45-positive cells were identified in spleens (around 10-15%), bone marrows (35-40%) and in the blood (2-6%) of the animals, confirming that the disease was established.

PHGDH = experiment: MOLM13 systemic xenograft model: biomarker flow cytometry in CD33-positive cells, PHGDH; type: in vivo, mice; settings: 50 mg/kg for 4 days
Description: as §1, §2

[10] = system: SLFN11 expression in Mv4-11 cells; experiment: Flow cytometry of total SLFN11 in Mv4-11 cells after long-term treatment; type: cell-based, human
Description: as §4, §5

In the case of `Nc1nc(Nc2ccc3c(c2)CC[C@@H](N2CCCC2)CC3)nn1-c1cc2c(nn1)-c1ccccc1CCC2` [BGB324], the “SLFN11 expression in CD33-positive cells” value (SLFN11) is reported as “significant reduction”, the “pErk in CD33-positive cells” value (pErk; bone marrows) is reported as “significant reduction” and the “pErk in CD33-positive cells” value (pErk; spleens) is reported as “significant reduction”. The “SLFN11 transcript regulation in spleens” value (SLFN11 transcript [1]) was “not among the transcripts that were significantly downregulated”, the “SLFN11 expression (flow cytometry)” value [2] was “marked reduction” and the “pPLCγ1 in CD33-positive cells” value (pPLCγ1; bone marrows) was “significant reduction”. The “pPLCγ1 in CD33-positive cells” value (pPLCγ1; spleens) was “significant reduction”, the “total protein expression of SLFN11 (flow cytometry, % of control)” value ([3]; MOLM13, 0.3 μM, 24, 48 and 72 hours) was “significant reduction” and the “SLFN11 expression (flow cytometry)” value ([3]; MOLM-13, 48 hours, increasing doses 0.1 uM to 1.2 uM) was “dose-dependent downregulation; also recorded: confirmed”. The “SLFN11 expression (flow cytometry)” value ([3]; MOLM-13, treated at IC50-values for 24, 48 and 72 hours) was “marked reduction”, the “reduction of SLFN11 transcript (Rank Product Analysis)” value (SLFN11 transcript [4]; study 1, Mv4-11 xenografts, single dose (50 or 100 mg/kg), sacrificed after 24 hours) was 1.449 fold and the “SLFN11 transcript regulation after 14d treatment (in words)” value (SLFN11 transcript [4]; study 2, 25 and 50 mg/kg) was “highly significant dose-dependent downregulation”. The “SLFN11 transcript, SAM (significance of microarray) analysis” value (SLFN11 transcript [4]; study 2, 14 d treatment, q=0.0) was “reduction of SLFN11 as the most significant (#1) hit”, the “downregulation of SLFN11 transcript (Rank Product Analysis)” value (SLFN11 transcript [4]; 25 mg/kg BID for 14 days) was 1.98 fold and the “downregulation of SLFN11 transcript (Rank Product Analysis)” value (SLFN11 transcript [4]; 50 mg/kg BID for 14 days) was 3.98 fold. For the same compound, the “Slfn11 expression (western blot)” value [5] was “dose-dependent downregulation; also recorded: dose-dependent reduction”, the “Slfn11 expression (western blot)” value ([5]; listed as BGB324/R428) was “reduced in a dose-dependent manner” and the “Slfn11 protein compared to control levels (western blot)” value (Slfn11 protein; 25 mg/kg BID and 50 mg/kg BID, 14 days) was “marked reduction”. For the same compound, the “Slfn11 protein (western blot)” value (Slfn11 protein; single dose 100 mg/kg, tumors harvested 6 h after treatment) was “reduced in one of the two parallel samples”, the “duration of effect on Slfn11 protein level” value (Slfn11 protein; single dose, 72 hours after treatment) was “stays low” and the “time after single dose within which Slfn11 is reduced” value (Slfn11 protein; single dose, depending on the drug concentration) was 24 to 72 h. For the same compound, the “Slfn11 protein (western blot)” value (Slfn11 protein; single high dose 100 mg/kg, 24, 48 and 72 hours after treatment) was “reduction”, the “Slfn11 protein (western blot)” value (Slfn11 protein; single high dose 100 mg/kg, time points earlier than 24 hours (from 4 hours)) was “not at earlier time points” and the “Slfn11 protein (western blot)” value (Slfn11 protein; single low dose 50 mg/kg, 72 hours after treatment) was “slight reduction”. For the same compound, the “pAkt change in CD33-positive cells” value (pAkt; bone marrows) was “not significant”, the “pAkt change in CD33-positive cells” value (pAkt; spleens) was “not significant” and the “SLFN11 expression (flow cytometry)” value [6] was “marked reduction”. For the same compound, the “total protein expression of SLFN11 (flow cytometry, % of control)” value ([7]; 24 and 48 hours) was “no significant differences”, the “total protein expression of SLFN11 (flow cytometry, % of control)” value ([7]; 72 hours) was “significant increase” and the “total protein expression of SLFN11 (flow cytometry, % of control)” value ([8]; 24 and 48 hours) was “no significant differences”. The “total protein expression of SLFN11 (flow cytometry, % of control)” value ([8]; 72 hours) was “significant increase”, the “percentage of leukemic cells (CD33/CD45-positive) vs. vehicle-treated” value (“percentage of leukemic cells” for short) ([9]; blood) was “significantly higher percentage” and the “percentage of leukemic cells” value ([9]; bone marrows) was “no significant differences”. The “percentage of leukemic cells” value ([9]; spleens) was “no significant differences”, the “PHGDH expression in CD33-positive cells” value (PHGDH; bone marrows) was “significant reduction” and the “PHGDH expression in CD33-positive cells” value (PHGDH; spleens) was “significant reduction”. The “total protein expression of SLFN11 (flow cytometry, % of control)” value ([10]; Mv4-11, 0.1 uM, 72 hours) was “significantly reduced” and the “total protein expression of SLFN11 (flow cytometry, % of control)” value ([10]; Mv4-11, 0.3 μM, 24, 48 and 72 hours) was “significant reduction”.
